# Measurements from paper PMC3294087 (Journal of Immunology (Baltimore, Md. : 1950), 2012).
# Where two headings read alike, the source gives them in different places.
# Tests used:
# [1] = system: Staphylococcus aureus (Wood 46 strain; ATCC# 10832); assay type: cell-based; conditions: 30 min at 37°C in PBS, mean of three experiments
# [2] = system: Candida albicans (Berkhout anamorph, ATCC # MYA-3573); assay type: cell-based; conditions: mean of three experiments
# [3] = system: Phil82 strain of IAV (A/Phillipines/82(H3N2)); experiment: Fluorescent focus assay on A549 cells; assay type: cell-based, influenza A virus; conditions: mean±SEM of 4 experiments
Molecule,S. aureus % of Control Colonies ([1]; 1.25 μg/ml),S. aureus % of Control Colonies ([1]; 2.5 μg/ml),S. aureus % of Control Colonies ([1]; 20 μg/ml),C. albicans % of Control Colonies ([2]; 1.25 μg/ml),C. albicans % of Control Colonies ([2]; 2.5 μg/ml),C. albicans % of Control Colonies ([2]; 20 μg/ml),"Neutralizing activity (infectious foci, control = 100%) ([3]; SP-D 5 ng/ml alone)","Neutralizing activity (infectious foci, control = 100%) ([3]; SP-D 10 ng/ml alone)"
HNP1: human neutrophil α-defensin,202±5%,151±4%,71±1 %,81±5 %,61±4 %,61±2 %,–,–
"SP-D: Recombinant human pulmonary surfactant protein D, dodecameric fraction, produced in CHO-K1 cells (protein, UniProt P35247 21-375, looked up, dodecameric fraction) Pulmonary …: AEMKTYSHRTMPSACTLVMCSSVESGLPGRDGRDGREGPRGEKGDPGLPGAAGQAGMPGQAGPVGPKGDNGSVGEPGPKGDTGPSGPPGPPGVPGPAGREGPLGKQGNIGPQGKPGPKGEAGPKGEVGAPGMQGSAGARGLAGPKGERGVPGERGVPGNTGAAGSAGAMGPQGSPGARGPPGLKGDKGIPGDKGAKGESGLPDVASLRQQVEALQGQVQHLQAAFSQYKKVELFPNGQSVGEKIFKTAGFVKPFTEAQLLCTQAGGQLASPRSAAENAALQQLVVAKNEAAFLSMTDSKTEGKFTYPTGESLVYSNWAPGEPNDDGGSEDCVEIFTNGKWNDRACGEKRLVVCEF",–,–,–,–,–,–,74±10%,50±6%
